19 compounds from patent US5736559A, “Biphenyl derivatives, pharmaceutical compositions containing these compounds and processes for preparing them” (Karl Thomae GmbH, priority 1991, dated 1998) can be followed below.

Series [1] deals with thrombocyte (platelet) aggregation. Briefly: Antithrombotic activity: collagen-induced thrombocyte aggregation in platelet rich plasma (Born and Cross). The note with it: Homo sapiens, platelet rich plasma from healthy test subjects, 10 minutes at 37° C. preincubation, 50% change in optical density, read-out: Inhibition of platelet aggregation EC50. It is filed as cell-based. How it is done: 2. Antithrombotic activity Method: Thrombocyte aggregation is measured in platelet rich plasma from healthy test subjects using the Born and Cross method (J. Physiol. 170, 397 (1964)). In order to inhibit coagulation the blood is mixed with sodium citrate 3.14% in a ratio by volume of 1:10. Collagen-induced aggregation: The course of the decrease in optical density of the platelet suspension is photometrically measured and recorded after the addition of the substance which triggers aggregation. The rate of aggregation is deduced from the gradient angle of the density curve. The point on the curve where there is maximum transmittance is used to calculate the optical density. The quantity of collagen used is as little as possible but sufficient to give an irreversible reaction curve. Standard commercial collagen produced by Hormonchemie of Munich is used. Before the addition of the collagen the plasma is incubated for 10 minutes at 37° C. with the substance. From the measurements obtained, an EC50 is determined graphically, relating to a 50% change in optical density in terms of the inhibition of aggregation.

The test system of the next series is mice. The series can be described thus: tolerability after intravenous administration in mice. The note with it: for sedation during the injection phase: mouse, in vivo, iv, 30 mg/kg. It is filed as in vivo.
Series [2] addresses Fibrinogen binding to human thrombocytes. Briefly: Fibrinogen binding to human thrombocytes. Conditions: 125I fibrinogen; gel-filtered human platelets; ADP; 20 minutes at ambient temperature; read-out: Fibrinogen binding test IC50. Here is the method:
Fibrinogen binding to human thrombocytes The blood obtained by puncturing an antecubital vein is anticoagulated with trisodium citrate (final concentration: 13 mM) and centrifuged for 10 minutes at 170 xg. The supernatant platelet-rich plasma is poured onto a Sepharose 2B column (Pharmacia) and eluted with a solution of 90 mM common salt, 14 mM trisodium citrate, 5 mM glucose and 50 mM Tris(hydroxymethyl)aminomethane, adjusted to pH 7.4. The gel-filtered platelets (GFP) appearing before the plasma proteins are used for the binding experiments. 50 μl of a 60 mM calcium chloride solution, 50 μl of a 0.6 mM adenosine diphosphate solution, 100 μl of substance solution or solvent and 50 μl of fibrinogen solution (containing 3 μg of ^125 I fibrinogen) are added to 750 μl of GFP and incubated for 20 minutes at ambient temperature. The non-specific binding is determined in the presence of 3 mg/ml of cold fibrinogen. 900 μl of the incubated material are carefully pipetted onto 250 μl of silicon oil (AP 38: AR 20, 1:2 v/v, Wacker Chemie) in Eppendorf tubes and centrifuged for 2 minutes at 10,000 xg. The aqueous supernatant and some of the oil are drawn off, the tips of the tubes are cut off together with the platelet pellet and the quantity of bound fibrinogen is determined in a gamma counter. The concentration of substance which brings about a 50% inhibition in fibrinogen binding is determined from a series of concentrations and is given as the IC50 value.

The test system of a further series is mouse. Briefly: tolerability after peroral administration in the mouse. Format: in vivo. The note with it: 2.0 g/kg.
In a further series the test system is rat. The series can be described thus: tolerability after peroral administration in the rat. Format: in vivo. Conditions: 2.0 g/kg.
Series [3] deals with collagen-induced thrombocyte aggregation. Briefly: collagen-induced thrombocyte aggregation ex vivo in Rhesus monkeys after oral administration. Conditions: oral administration of 1 mg/kg. Here is the method: Moreover, the compound of Example 8(5) inhibits the collagen-induced thrombocyte aggregation ex vivo in Rhesus monkeys, for example, after oral administration of 1 mg/kg for longer than 8 hours.

Structures can show the parent of a compound that is named as a salt. A value given as a limit tells only on which side of the number the result lay.

As usually defined, the EC50 is the concentration giving half of the maximal effect. One may read the IC50 as the point on the concentration scale where inhibition reaches its midpoint. On to `COc1ccc(CCNC(=O)C(CC(=O)O)NC(=O)Cc2ccc(-c3ccc(C(=N)N)cc3)cc2)cc1.Cl` (stereo not drawn) [2(11), 4-amidino-4'-[[2-carboxy-1-[[2-(4-methoxyphenyl)-ethyl]aminocarbonyl]ethylamino]carbonylmethyl]biphenyl hydrochloride], for which the EC50 in series [1] turned out to be 2200 nM. Further, the “sedation during the injection phase” value with mice was 1 or 2 animals were sedated. Besides, in series [2], the IC50 worked out at 360 nM.
Regarding `COC(=O)CC1CCN(C(=O)c2ccc(-c3ccc(C(=N)NC(=O)OC)cc3)cc2)CC1` [Example 8(5), 4-(N-methoxycarbonylamidino)-4'-[(4-methoxycarbonylmethylpiperidino)carbonyl]biphenyl], the toxic effects entry in the series on mouse and in the series on rat was “no toxic effects were observed” throughout. Moreover, the “duration of inhibition of collagen-induced thrombocyte aggregation ex vivo” value in series [3] was above 8 h.
For the compound `Cl.N=C(N)c1ccc(-c2ccc(C(=O)N3CCC(CC(=O)O)CC3)cc2)cc1` [Example 1(39), 4-amidino-4'-[(4-carboxymethylpiperidino)-carbonyl]biphenyl hydrochloride], in series [1], the concentration giving a half-maximal response (EC50) turned out to be 100 nM. Moreover, the animals died entry in the series on mice (mice, intravenous, 60 mg/kg, three animals tested) is on record as “none of the three animals tested died”. In addition, in series [2], the IC50 was 24 nM.
For `COC(=O)C1CCC(NC(=O)c2ccc(-c3ccc(C(=N)N)cc3)cc2)CC1` (stereo not drawn) [6(87), 4-amidino-4'-[(4-methoxycarbonylcyclohexyl)-aminocarbonyl]biphenyl hydrochloride], the EC50 in series [1] was 60 nM. The IC50 in series [2] was 3800 nM.
For `COC(=O)C1CCCN(C(=O)COc2ccc(-c3ccc(C(=N)N)cc3)cc2)C1` (stereo not drawn) [6(49), 4-amidino-4'-[[(3-methoxycarbonylpiperidino)-carbonyl]methyloxy]biphenyl hydrochloride] the same measures were 36000 nM and 32000 nM.
For `COC(=O)CCCCCOc1ccc(-c2ccc(C(=N)N)cc2)cc1` [Example 6, Di-[4-Amidino-4'-(5-methoxycarbonylpentyloxy)biphenyl]dihydrogencarbonate] the same measures were 2600 nM and 570 nM.
In the case of `COC(=O)CCN1CCN(C(=O)c2ccc(-c3ccc(C(=N)N)cc3)cc2)CC1` [6(75), 4-amidino-4'-[[(4-(2-methoxycarbonylethyl)-piperazino]carbonyl]biphenyldi hydrochloride], the 50% effective concentration (EC50) in series [1] was 3200 nM. For the same compound, the concentration for half-maximal inhibition (IC50) in series [2] is 27000 nM.
For `N=C(N)c1ccc(-c2ccc(CC(=O)Nc3cccc(CC(=O)O)c3)cc2)cc1` [1(5), 4-amidino-4'-[[(3-carboxymethylphenyl)-aminocarbonyl]methyl]biphenyl] the same measures were above 100000 nM and 65000 nM.
For `N=C(N)c1ccc(-c2ccc(C(=O)NCCCC(=O)O)cc2)cc1` [1(2), 4-amidino-4'-[(3-carboxypropyl)aminocarbonyl]-biphenyl] the same measures were 7000 nM and 120 nM.
As for `COC(=O)CC1CCCN(C(=O)Cc2ccc(-c3ccc(C(=N)N)cc3)cc2)C1` (stereo not drawn) [6(58), 4-amidino-4'-[(3-methoxycarbonylmethylpiperidino)-carbonylmethyl]biphenyl hydrochloride], in series [1], the concentration giving a half-maximal response (EC50) is 23000 nM. In addition, in series [2], the IC50 was found to be 34000 nM.
For `NCc1ccc(-c2ccc(C(=O)N3CCC(CC(=O)O)CC3)cc2)cc1` [10(1), 4-aminomethyl-4'-[(4-carboxymethylpiperidino)-carbonyl]biphenyl hydrochloride] the same measures were 1800 nM and 800 nM.
Regarding `COC(=O)C1CCN(C(=O)c2ccc(-c3ccc(C(=N)N)cc3)cc2)CC1` [6(81), 4-amidino-4'-[(4-methoxycarbonylpiperidino)-carbonyl]biphenyl], the 50% effective concentration (EC50) in series [1] was determined as 34000 nM. For the same compound, the IC50 in series [2] came to 25000 nM.
For `N=C(N)c1ccc(-c2ccc(OCCCC(=O)O)cc2)cc1` [2(1), 4-amidino-4'-(3-carboxypropyloxy)biphenyl] the same measures were 56000 nM and above 10000 nM.
With `N=C(N)c1ccc(-c2ccc(OCC(=O)NCCC(=O)O)cc2)cc1` [1(4), 4-amidino-4'-[[(2-carboxyethyl)aminocarbonyl]-methyloxy]biphenyl], the EC50 in series [1] stood at 1700 nM. Moreover, the IC50 in series [2] was 350 nM.
With `N=C(N)c1ccc(-c2ccc(NC(=O)CCCC(=O)O)cc2)cc1` [1(1), 4-amidino-4'-(4-carboxybutyrylamino) biphenyl], in series [1], the half-maximal effective concentration (EC50) turned out to be 1100 nM. Besides, the “sedation during the injection phase” value with mice is reported as 1 or 2 animals were sedated. Also, the IC50 in series [2] was 160 nM.
As for `N=C(N)c1ccc(-c2ccc(NS(=O)(=O)NCCC(=O)O)cc2)cc1` [1(69), 4-amidino-4'-[(2-carboxyethyl)aminosulphonyl-amino]biphenyl], the EC50 in series [1] amounted to 12000 nM. Further, the IC50 in series [2] came out at 3100 nM.
For `N=C(N)c1ccc(-c2ccc(CC(=O)N3CCCC(CC(=O)O)C3)cc2)cc1` (stereo not drawn) [1(47), 4-amidino-4'-[(3-carboxymethylpiperidino)-carbonylmethyl]biphenyl hydrochloride] the same measures were 2700 nM and 470 nM.
For `COC(=O)CC1CCN(C(=O)c2ccc(-c3ccc(C(=N)N)cc3)cc2)CC1` [6(50), 4-amidino-4'-[(4-methoxycarbonylmethylpiperidino)-carbonyl]biphenyl hydrochloride] the same measures were 890 nM and 340 nM.
For `COC(=O)CCCC(=O)Nc1ccc(-c2ccc(C(=N)N)cc2)cc1` [6(1), 4-amidino-4'-(4-methoxycarbonylbutyrylamino)-biphenyl hydrochloride] the same measures were 3700 nM and 5600 nM.
